Assay results reported in ChEMBL document CHEMBL6078684, “Discovery of a Novel Non-invasive AR PROTAC Degrader for the Topical Treatment of Androgenetic Alopecia” (J Med Chem, 2024).
Calls of active or inactive are those of the source. No cut-off for these calls is given here.

Assays:
[1] = Ratio of drug concentration in male ICR mouse skin to spleen at 4 mg/ml, TOP measured after 0.5 hrs by LC-MS/MS analysis; assay type: ADME, tissue-based; conditions: in vivo, topical_or_ocular
[2] = Ratio of drug concentration in male ICR mouse skin to liver at 4 mg/ml, TOP measured after 1 hrs by LC-MS/MS analysis; assay type: ADME, tissue-based; conditions: in vivo, topical_or_ocular
[3] = Ratio of drug concentration in male ICR mouse skin to kidney at 4 mg/ml, TOP measured after 2 hrs by LC-MS/MS analysis; assay type: ADME, tissue-based; conditions: in vivo, topical_or_ocular
[4] = molecular target: T1, Protein cereblon/Androgen receptor (Mus musculus) (UniProt P19091+Q8C7D2); test: In vivo PROTAC activity at CRBN/AR in testosterone induced male C57BL/6 mouse androgenetic alopecia model assessed as decrease in TGF-beta expression level in skin at 0.4 % TOP administered once daily for 14 days with co-administration of 0.2% testosterone for 28 days by DAPI staining based immunofluorescence analysis; assay type: functional, organism-based; conditions: time 14.0 day
Mus musculus [5] = test: Hair regeneration efficacy in testosterone induced male C57BL/6 mouse androgenetic alopecia model assessed as increase in hair cycle score at 0.4 %, TOP administered once daily for 14 days with co-administration of 0.2% testosterone for 28 days; assay type: functional, organism-based; conditions: time 14.0 day
Mus musculus [6] = test: Hair regeneration efficacy in testosterone induced male C57BL/6 mouse androgenetic alopecia model assessed as entry of hair follicles to anagen phase by measuring high density of enlarged hair bulbs in subcutaneous tissue at 0.4 %, TOP administered once daily for 14 days with co-administration of 0.2% testosterone for 28 days by H and E staining based analysis; assay type: functional, organism-based; conditions: time 14.0 day
[7] = Drug uptake in male Sprague-Dawley rat Dorsal skin assessed as retention rat at 1 mg/ml, TOP measured after 30 mins by LC-MS/MS analysis; assay type: ADME, tissue-based, Zone of skin; conditions: in vivo, topical_or_ocular, 0.5 h
[8] = molecular target: T2, Protein cereblon/Androgen receptor (Homo sapiens, UniProt P10275+Q96SW2); test: PROTAC activity at CRBN/AR in human dermal papilla cells assessed as induction of AR degradation at 500 nM in presence of MLN4924 by Western blot analysis; assay type: cell-based; conditions: Human dermal papilla cell
[9] = Ratio of drug concentration in male ICR mouse skin to plasma at 4 mg/ml, TOP measured after 4 hrs by LC-MS/MS analysis; assay type: ADME, cell-free; conditions: other tissue, topical_or_ocular
[10] = molecular target: T1, Protein cereblon/Androgen receptor (Mus musculus); test: In vivo PROTAC activity at CRBN/AR in testosterone induced male C57BL/6 mouse androgenetic alopecia model assessed as decrease in AR protein level in skin at 0.1 to 0.4 % TOP administered once daily for 14 days with co-administration of 0.2% testosterone for 28 days by Western blot analysis; assay type: functional, organism-based; conditions: dose 0.1-0.4 %, time 14.0 day
[11] = Ratio of drug concentration in male ICR mouse skin to heart at 4 mg/ml, TOP measured after 12 hrs by LC-MS/MS analysis; assay type: ADME, tissue-based; conditions: in vivo, topical_or_ocular
[12] = Cmax in male ICR mouse skin at 4 mg/ml, TOP measured after 12 hrs by LC-MS/MS analysis; assay type: ADME, tissue-based, Skin of body; conditions: topical or ocular
Mus musculus [13] = test: Hair regeneration efficacy in testosterone induced male C57BL/6 mouse androgenetic alopecia model assessed as increase in Ki67 expression in skin at 0.1 % TOP administered once daily for 14 days with co-administration of 0.2% testosterone for 28 days by DAPI staining based immunofluorescence analysis; assay type: functional, organism-based; conditions: time 14.0 day
Mus musculus [14] = test: Hair regeneration efficacy in testosterone induced male C57BL/6 mouse androgenetic alopecia model assessed as increase in hair cycle score at 0.1 %, TOP administered once daily for 14 days with co-administration of 0.2% testosterone for 28 days; assay type: functional, organism-based; conditions: time 14.0 day
[15] = Ratio of drug concentration in male ICR mouse skin to kidney at 4 mg/ml, TOP measured after 4 hrs by LC-MS/MS analysis; assay type: ADME, tissue-based; conditions: in vivo, topical_or_ocular
[16] = Ratio of drug concentration in male ICR mouse skin to liver at 4 mg/ml, TOP measured after 0.25 hrs by LC-MS/MS analysis; assay type: ADME, tissue-based; conditions: in vivo, topical_or_ocular
[17] = Ratio of drug concentration in male ICR mouse skin to spleen at 4 mg/ml, TOP measured after 12 hrs by LC-MS/MS analysis; assay type: ADME, tissue-based; conditions: in vivo, topical_or_ocular
[18] = Ratio of drug concentration in male ICR mouse skin to kidney at 4 mg/ml, TOP measured after 8 hrs by LC-MS/MS analysis; assay type: ADME, tissue-based; conditions: in vivo, topical_or_ocular
[19] = molecular target: T2, Protein cereblon/Androgen receptor; test: PROTAC activity at CRBN/AR in human dermal papilla cells assessed as induction of AR degradation at 500 nM in presence of pomalidomide by Western blot analysis; assay type: cell-based; conditions: Human dermal papilla cell
[20] = Ratio of drug concentration in male ICR mouse skin to lungs at 4 mg/ml, TOP measured after 0.5 hrs by LC-MS/MS analysis; assay type: ADME, tissue-based, Skin/Lung; conditions: in vivo, topical_or_ocular
[21] = molecular target: T2, Protein cereblon/Androgen receptor; test: PROTAC activity at CRBN/AR in human dermal papilla cells assessed as decrease in AR protein level at 250 to 1000 nM preincubated with testosterone for 24 hrs followed by compound addition and measured after 48 hrs by Western blot analysis; assay type: cell-based; conditions: Human dermal papilla cell, dose 250-1000 nM
[22] = molecular target: T2, Protein cereblon/Androgen receptor; test: PROTAC activity at CRBN/AR in human dermal papilla cells assessed as increase in beta-catenin protein level at 250 to 1000 nM preincubated with testosterone for 24 hrs followed by compound addition and measured after 48 hrs by Western blot analysis; assay type: cell-based; conditions: Human dermal papilla cell, dose 250-1000 nM
[23] = Ratio of drug concentration in male ICR mouse skin to liver at 4 mg/ml, TOP measured after 0.5 hrs by LC-MS/MS analysis; assay type: ADME, tissue-based; conditions: in vivo, topical_or_ocular
[24] = Ratio of drug concentration in male ICR mouse skin to plasma at 4 mg/ml, TOP measured after 0.5 hrs by LC-MS/MS analysis; assay type: ADME, cell-free; conditions: topical or ocular
[25] = Ratio of drug concentration in male ICR mouse skin to spleen at 4 mg/ml, TOP measured after 8 hrs by LC-MS/MS analysis; assay type: ADME, tissue-based; conditions: in vivo, topical_or_ocular
[26] = Ratio of drug concentration in male ICR mouse skin to lungs at 4 mg/ml, TOP measured after 4 hrs by LC-MS/MS analysis; assay type: ADME, tissue-based, Skin/Lung; conditions: in vivo, topical_or_ocular
[27] = molecular target: T2, Protein cereblon/Androgen receptor; test: PROTAC activity at CRBN/AR in human dermal papilla cells assessed as induction of AR degradation at 500 nM in presence of MG132 by Western blot analysis; assay type: cell-based; conditions: Human dermal papilla cell
[28] = Ratio of drug concentration in male ICR mouse skin to kidney at 4 mg/ml, TOP measured after 0.5 hrs by LC-MS/MS analysis; assay type: ADME, tissue-based; conditions: in vivo, topical_or_ocular
[29] = Ratio of drug concentration in male ICR mouse skin to heart at 4 mg/ml, TOP measured after 2 hrs by LC-MS/MS analysis; assay type: ADME, tissue-based; conditions: in vivo, topical_or_ocular
Mus musculus [30] = test: Hair regeneration efficacy in testosterone induced male C57BL/6 mouse androgenetic alopecia model assessed as improvement in morphology of regenerated hair at 0.1 %, TOP administered once daily for 14 days with co-administration of 0.2% testosterone and measured after 28 days by SEM analysis; assay type: functional, organism-based; conditions: time 28.0 day
[31] = Ratio of drug concentration in male ICR mouse skin to kidney at 4 mg/ml, TOP measured after 1 hrs by LC-MS/MS analysis; assay type: ADME, tissue-based; conditions: in vivo, topical_or_ocular
[32] = Ratio of drug concentration in male ICR mouse skin to heart at 4 mg/ml, TOP measured after 4 hrs by LC-MS/MS analysis; assay type: ADME, tissue-based; conditions: in vivo, topical_or_ocular

T2 sequence (P10275 whole entry, looked up): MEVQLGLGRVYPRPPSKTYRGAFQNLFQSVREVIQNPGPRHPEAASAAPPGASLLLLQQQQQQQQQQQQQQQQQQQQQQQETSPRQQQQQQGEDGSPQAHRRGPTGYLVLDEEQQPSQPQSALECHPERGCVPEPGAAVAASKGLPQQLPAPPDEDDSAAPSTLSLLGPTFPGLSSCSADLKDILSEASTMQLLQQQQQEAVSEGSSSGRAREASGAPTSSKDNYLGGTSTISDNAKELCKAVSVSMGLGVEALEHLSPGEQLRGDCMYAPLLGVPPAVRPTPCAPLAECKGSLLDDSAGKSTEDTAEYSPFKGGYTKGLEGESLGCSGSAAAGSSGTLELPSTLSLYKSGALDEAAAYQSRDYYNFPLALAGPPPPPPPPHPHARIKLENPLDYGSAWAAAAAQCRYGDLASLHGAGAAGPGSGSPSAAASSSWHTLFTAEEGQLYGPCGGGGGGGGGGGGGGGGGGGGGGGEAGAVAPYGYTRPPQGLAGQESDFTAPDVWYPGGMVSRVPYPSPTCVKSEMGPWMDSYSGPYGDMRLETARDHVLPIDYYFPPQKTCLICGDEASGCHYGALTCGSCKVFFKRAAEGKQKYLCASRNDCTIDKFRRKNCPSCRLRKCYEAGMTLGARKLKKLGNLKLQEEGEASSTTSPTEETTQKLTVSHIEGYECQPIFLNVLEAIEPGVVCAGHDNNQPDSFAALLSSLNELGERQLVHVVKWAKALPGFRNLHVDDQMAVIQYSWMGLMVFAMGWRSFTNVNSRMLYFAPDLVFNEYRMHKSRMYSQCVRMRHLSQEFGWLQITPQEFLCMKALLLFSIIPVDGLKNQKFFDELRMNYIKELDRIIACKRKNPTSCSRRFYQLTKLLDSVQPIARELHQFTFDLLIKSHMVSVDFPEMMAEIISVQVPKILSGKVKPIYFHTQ
T2 sequence (Q96SW2 whole entry, looked up): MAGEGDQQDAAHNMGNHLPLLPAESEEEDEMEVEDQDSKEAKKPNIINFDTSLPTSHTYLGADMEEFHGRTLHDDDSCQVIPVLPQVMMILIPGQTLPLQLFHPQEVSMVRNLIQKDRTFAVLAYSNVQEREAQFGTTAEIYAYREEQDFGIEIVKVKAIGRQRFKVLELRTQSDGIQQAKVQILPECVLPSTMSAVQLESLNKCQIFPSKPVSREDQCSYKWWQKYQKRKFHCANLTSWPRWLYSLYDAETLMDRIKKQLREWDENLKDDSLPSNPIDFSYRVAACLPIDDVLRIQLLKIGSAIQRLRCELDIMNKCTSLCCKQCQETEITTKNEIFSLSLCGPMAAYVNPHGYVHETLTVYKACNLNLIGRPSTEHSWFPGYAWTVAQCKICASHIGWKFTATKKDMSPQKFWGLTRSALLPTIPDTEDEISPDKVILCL
T1 sequence (P19091 whole entry, looked up): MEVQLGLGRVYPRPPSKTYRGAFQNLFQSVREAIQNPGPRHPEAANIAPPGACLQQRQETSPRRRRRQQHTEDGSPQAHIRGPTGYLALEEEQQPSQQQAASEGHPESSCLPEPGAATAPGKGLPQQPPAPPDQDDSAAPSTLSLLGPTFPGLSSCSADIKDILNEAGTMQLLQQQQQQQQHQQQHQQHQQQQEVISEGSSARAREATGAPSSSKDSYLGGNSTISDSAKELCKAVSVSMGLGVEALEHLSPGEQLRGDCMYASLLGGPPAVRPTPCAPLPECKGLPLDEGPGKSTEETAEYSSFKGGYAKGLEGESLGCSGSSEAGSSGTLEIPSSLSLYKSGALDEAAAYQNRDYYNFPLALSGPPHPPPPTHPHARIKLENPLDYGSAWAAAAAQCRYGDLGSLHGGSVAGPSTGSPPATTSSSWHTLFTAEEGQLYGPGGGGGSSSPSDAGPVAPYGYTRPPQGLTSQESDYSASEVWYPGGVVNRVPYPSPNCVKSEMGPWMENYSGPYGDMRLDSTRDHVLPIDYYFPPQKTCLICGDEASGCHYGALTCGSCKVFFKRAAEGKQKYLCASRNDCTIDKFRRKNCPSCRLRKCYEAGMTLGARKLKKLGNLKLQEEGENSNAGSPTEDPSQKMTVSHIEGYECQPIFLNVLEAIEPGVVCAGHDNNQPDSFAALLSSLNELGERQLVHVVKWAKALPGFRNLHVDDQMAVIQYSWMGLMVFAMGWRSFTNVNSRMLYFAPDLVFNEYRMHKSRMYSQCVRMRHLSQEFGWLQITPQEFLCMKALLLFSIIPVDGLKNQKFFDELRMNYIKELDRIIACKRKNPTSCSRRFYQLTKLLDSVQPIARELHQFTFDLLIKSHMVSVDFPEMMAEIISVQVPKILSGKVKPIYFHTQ
T1 sequence (Q8C7D2 whole entry, looked up): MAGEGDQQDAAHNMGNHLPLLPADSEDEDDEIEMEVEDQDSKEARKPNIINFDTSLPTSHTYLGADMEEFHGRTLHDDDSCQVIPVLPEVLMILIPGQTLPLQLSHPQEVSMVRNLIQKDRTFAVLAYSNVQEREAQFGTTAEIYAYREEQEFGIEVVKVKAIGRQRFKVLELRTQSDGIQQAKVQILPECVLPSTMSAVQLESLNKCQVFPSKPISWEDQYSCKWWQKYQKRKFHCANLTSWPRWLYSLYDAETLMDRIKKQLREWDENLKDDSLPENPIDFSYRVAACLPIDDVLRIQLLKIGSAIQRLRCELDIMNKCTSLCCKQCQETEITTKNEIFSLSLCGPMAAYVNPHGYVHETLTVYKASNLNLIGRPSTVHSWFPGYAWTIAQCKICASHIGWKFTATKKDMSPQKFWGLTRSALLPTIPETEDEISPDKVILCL

## N#Cc1ccc(O[C@H]2CC[C@H](NC(=O)c3ccc(C4CCN(CC5CCCN(c6ccc(C(=O)NC7CCC(=O)NC7=O)cc6)C5)CC4)cc3)CC2)cc1Cl (some centres not stated)
[1]
  Ratio: 67.05
[2]
  Ratio: 485.29
[3]
  Ratio: 410.02
[4]
  Activity: Active
Mus musculus [5]
  Activity: Active
Mus musculus [6]
  Activity: Active
[7]
  Drug uptake: 2.48%
[8]
  Activity: Not active; Compound Activity Dependent On Ubiquitin-Proteosome System
[9]
  Ratio: 1873.84
[10]
  Activity: Active
[11]
  Ratio: 274.38
[12]
  Cmax: 86700 ng/g
Mus musculus [13]
  Activity: Active; Moderate Increase Observed Compared To Model Group
Mus musculus [14]
  Activity: Active; Less Effective Compared To High Dose Compound Group And Minoxidil Group
[15]
  Ratio: 285.69
[16]
  Ratio: 344.99
[17]
  Ratio: 249.88
[18]
  Ratio: 191.71
[19]
  Activity: inactive
[20]
  Ratio: 54.37
[21]
  Activity: Active
[22]
  Activity: Active
[23]
  Ratio: 465.04
[24]
  Kp at 0.5 h: 129
[25]
  Ratio: 347.97
[26]
  Ratio: 238.43
[27]
  Activity: Not active; Compound Activity Dependent On Ubiquitin-Proteosome System
[28]
  Ratio: 190.39
[29]
  Ratio: 638.59
Mus musculus [30]
  Activity: Active
[31]
  Ratio: 467.24
[32]
  Ratio: 403.09
